Results as given in patent US20240131155A1, “T CELLS FOR USE IN THERAPY” (Erasmus University Medical Center Rotterdam, priority 2021, published 2024).
Peptide text beside a SMILES is read from it.

Experiments:
peptide:MHC = peptide:MHC (Homo sapiens, UniProt P04439, D140Y/D185E/D98H/E176V/E277Q/G131W/G231S/I119V/I121R/I166T/I218V/N151K/N90K/P208A/P217A/Q86G/Q94H/R138H/R169H); assay: TCR gene transfer into healthy donor T cells, surface expression by pMHC staining; type: cell-based; settings: Table 4; T cells transduced with TCR specific for the epitope
Excerpt: (§1) Identified TCRα and TCRβ genes were codon optimized (GeneArt, Regensburg, Germany) and cloned into the pMP71 vector (a kind gift of prof. Wolfgang Uckert, MDC, Berlin, Germany) using a TCRβ-2A-TCRα cassette that was flanked by NotI and EcoRI restriction sites. Upon activation with anti-CD3 mAb OKT3, PBMCs from healthy donors were transduced with TCR-encoding retroviruses (pMP71) or empty vector that were produced by a co-culture of 293T and Phoenix-Ampho packaging cells, as described previously in Lamers et al., Cancer Gene Ther.;13(5):503-509 (2006), doi:10.1038/sj.cgt.7700916, and Straetemans G, Clin Dev Immunol, 2012. Staining for surface-expressed TCR transgenes was performed as described above (FIG. 5A,B).
as §1, with “TCRα” for “Identified TCRα”, “TCR13-2A-TCRα” for “TCRβ-2A-TCRα”, “2012.” for “2012. Staining for surface-expressed TCR transgenes was performed as described above (FIG. 5A,B).”
Staining for surface-expressed TCR transgenes was performed as described above. […] Note that for a single epitope (EVI; SEQ ID NO:24) pMHC complexes were insensitive to detect TCR T cells and replaced by stainings with antibodies directed against TCR-Vb7.1 and CD137. The expression of CD137 was measured following 48 h stimulation with EVI epitope-loaded BSM cells, and threshold for inclusion again being expression in more than 5% of cells in the CD3-positive cell population in at least 2 donors.

CD8+ T cells = assay: peptide:MHC multimer/tetramer staining of enriched T cells (flow cytometry); type: cell-based, human; settings: for pMHC staining % pMHC+ CD8+ in CD3+: Table 4, enriched T cells after enrichment cycles
Description: Enrichment of epitope-specific CD8 T cells was performed according to the protocol described by Butler et al., Clin Cancer Res.;13(6):1857-1867 (2007), doi:10.1158/1078-0432, but included the following amendments. CD8+ T lymphocytes were collected from PBMCs by magnetic-activated cell sorting (MACS) according to the CD8 isolation kit (Miltenyi Biotec). CD8+ T cells with >95% purity were subsequently cultured in T cell medium supplemented with IL-2 (36 IU/mL; but no gentamycin) for 1 day, after which expansion cycles started. K562ABC cells (kindly provided by prof. Bruce Levine, University of Pennsylvania, PA) were loaded with 10 μg/ml ROPN1 and/or ROPN1B peptide and incubated for 5 h at RT in serum-free medium, after which cells were washed and fixed with 0,1% paraformaldehyde. After washing, K562ABC cells were suspended at 0.1×10^6/mL and co-cultured with T cells in a 1:20 ratio. IL-2 (36 IU/mL) and IL-15 ([…]) were added at days 1 and 3 days after start of co-culture, and after 6 days, T cells were counted, suspended at 2×10^6/mL and rested for 1 day, after which the next cycle commenced (this schedule continued up to 4 or 5 cycles). Following 4 and 5 cycles, T cells were stained with pMHC multimers (HLA*0201/MLN, Immudex, Copenhagen, Denmark). pMHC-PE were pre-incubated at RT for 10 min followed by incubation with 7AAD, anti-CD3-FITC and anti-CD8-APC for 20 min. Cells were fixed with 1% paraformaldehyde and TCR expression was measured with flow cytometry and analyzed using FlowJoX software. FIG. 4A schematically depicts the procedure to enrich epitope-specific T cells, and obtainthe corresponding TCR genes.
Following enrichment, T cells were tested for ROPN1 and/or ROPN1B epitope-specific IFNY production. To this end, T2 cells (1×10^6/mL) were loaded with peptide (20 ng/mL) for 30 min, after which T cells (1×10^5) were cultured in a 1:1 ratio with T2 cells in a round bottom 96-wells plate for 18 h. Supernatant was collected and IFN-γ production was measured with an Enzyme-linked immunosorbent assay (ELISA, BioLegend) according to the manufacturer's protocol (FIG. 9A). T2 cells loaded with an irrelevant peptide were included as a negative control. T cell IFNg production was considered epitope-specific in case levels exceeded 200 pg/ml, and levels were minimally twice as high as for irrelevant peptide (see for full listing of criteria, FIG. 8). T cells that fulfilled these criteria were stained with peptide:MHC (pMHC) tetramers to determine the frequency of epitope-specific T cells. Empty Loadable HLA Tetramers (5 μL, Tetramer shop, Kongens Lyngby, Denmark) were incubated with 0.5 μL peptide (200 μM) for 30 min on ice. Complexes of pMHC were centrifuged (3300 g, 5 min) and incubated with 0.1×10^6 T cells for 15 min at 37° C. in the dark. Next, an antibody cocktail containing CD3-FITC (1:30, BD) and CD8-APC (1:300, eBiosciences) was added and incubated for an additional 30 min at 4° C. in the dark. Finally, T cells were washed twice and fixed with 1% paraformaldehyde (PFA), after which events were acquired with FACSCelesta (BD) and analyzed using FlowJoX software.

[1] = test system: ROPN1 or ROPN1B over-expressing MDA-MB231 tumor cells; assay: IFNg production of TCR T cells co-cultured with ROPN1 or ROPN1B over-expressing tumor cells (endogenously processed epitope); type: cell-based, human; settings: Table 4; responding TCRs / TCRs tested, T cells transduced with TCR specific for the epitope
Description: In a first series of in vitro tests, TCR-transduced T cells (6×10^4/well in a 96-well plate) were co-cultured with ROPN1 or ROPN1B over-expressing MDA-MB231 tumor cells (2×10^4/well) in a total volume of 200 μl of T cell medium for 24 h at 37° C. The ROPN1 or ROPN1B over-expressing tumor cells were generated as described under ‘generation and culture of cell lines and T cells’ (see above), and tumor cells were pre-treated 48 h with IFN-Y before co-culture with T cells. […] T cells that fulfilled these criteria (examples in FIG. 10A) were assessed for their sensitivity towards their cognate epitope. […] EC50 values were calculated using GraphPad Prism 5 software.

Surface expression % pMHC+ in CD3+ (peptide:MHC) [%]	Structure (SMILES)	pMHC staining % pMHC+ CD8+ in CD3+ (CD8+ T cells) [%]	T cell responses observed (IFNg) against endogenously presented epitope [1]	enriched T cells binding MLN/HLA-A2 complexes (CD8+ T cells; after 4 cycles of co-culture with epitope-loaded aAPC) [%]	enriched T cells binding MLN/HLA-A2 complexes (CD8+ T cells; after 5 cycles of co-culture with epitope-loaded aAPC) [%]
5.02	CC[C@H](C)[C@H](NC(=O)[C@H](Cc1ccc(O)cc1)NC(=O)[C@@H](NC(=O)[C@H](Cc1ccc(O)cc1)NC(=O)[C@H](CC(C)C)NC(=O)[C@@H](N)Cc1ccccc1)[C@@H](C)O)C(=O)N[C@@H](C)C(=O)N[C@@H](CCC(=O)O)C(=O)N[C@H](C(=O)O)C(C)C (H-FLYTYIAEV-OH; N-terminus and C-terminus assumed)	1.34	1/1 responses	–	–
33.2	CC[C@H](C)[C@H](NC(=O)[C@H](Cc1ccc(O)cc1)NC(=O)[C@@H](NC(=O)[C@H](Cc1ccc(O)cc1)NC(=O)[C@H](CC(C)C)NC(=O)[C@@H](N)Cc1ccccc1)[C@@H](C)O)C(=O)N[C@@H](C)C(=O)N[C@@H](CCCCN)C(=O)N[C@H](C(=O)O)C(C)C (H-FLYTYIAKV-OH; N-terminus and C-terminus assumed)	2.76	1/1 responses	–	–
49.7	CC[C@H](C)[C@H](NC(=O)[C@H](Cc1ccc(O)cc1)NC(=O)[C@H](CC(N)=O)NC(=O)[C@H](CC(C)C)NC(=O)[C@@H](N)CCSC)C(=O)N[C@@H](CCC(=O)O)C(=O)N[C@@H](CCC(N)=O)C(=O)N[C@@H](CCC(=O)O)C(=O)N[C@H](C(=O)O)C(C)C (H-MLNYIEQEV-OH; N-terminus and C-terminus assumed)	13.3	0/2 responses	20	62
49.7	CSCC[C@H](NC(=O)[C@H](CCC(N)=O)NC(=O)[C@H](C)N)C(=O)N[C@@H](Cc1c[nH]c2ccccc12)C(=O)N[C@@H](CCCCN)C(=O)N[C@H](C(=O)N[C@H](C(=O)N[C@@H](CC(N)=O)C(=O)N[C@@H](CC(C)C)C(=O)O)C(C)C)C(C)C (H-AQMWKVVNL-OH; N-terminus and C-terminus assumed)	2.58	0/1 responses	–	–
